Test results: patent US8901317B2, “Tryptamine derivatives, their preparation and their use in gastropathy” (Council of Scientific & Industrial Research, priority 2010, dated 2014)

Assays:
[1] = Ferric reducing antioxidant power (FRAP) assay; details: for FRAP Value6 min (μM) M ± SD: 6 min; for FRAP Value6 min (μM) M ± SD / FRAP Value65 min (μM) M ± SD: compound at 10 μM relative to ferrous sulfate; for FRAP Value65 min (μM) M ± SD: 65 min
Procedure: The antioxidant property of different tryptamine derivatives were assessed and compared with the known antioxidants for potency. […] The FRAP assay is based on the measurement of the ability of the substance to reduce Fe^3+ to Fe^2+, greater the reducing ability greater the anti oxidant property. Antioxidants reduce Fe^3+-TPTZ in to blue colored Fe^2+-TPTZ complex, which results in an increase in the absorbance at 595 nm giving a FRAP value. […] Absorbance changes at different time intervals (FIG. 6) as well as at different concentrations (FIG. 7) at time 6 min in the presence of different compounds at 595 nm were measured. FRAP values at 6 min and 65 min were calculated from different tryptamine derivatives and some known antioxidant (Table 1). […] DPPH assay based on the DPPH free radicals scavenging power of the antioxidant molecules. Higher the scavenging power higher will be the antioxidant property.
The assay was performed in a 96-well microplate. FRAP reagent was prepared by mixing of 10 ml acetate buffer (200 mM, pH-3.6), 1 ml of 2,4,6-tris(2-pyridyl)-s-triazine (TPTZ) solution (10 mM in 40 mM HCl) and 1 ml of ferric chloride solution (20 mM) in distilled water. For 1 h the mixture was kept in a water bath at 37° C. In 96-well microplates, 25 μL of the compounds under investigation dissolved (in methanol, some compound dissolved in water) at different concentrations in the range 1-25 μM was placed in triplicate and freshly prepared FRAP solution (175 μL) was added to this sample. A micro plate reader monitored the absorbance at 595 nm at different time intervals for up to 150 min. The absorbance of a mixture 175 μL TRAP sol and 25 μL methanol or water was taken which was subtracted from the absorbance of the samples at each time interval to calculate the absorbance change (ΔA). The FRAP value at time interval t (FRAP valuet) was calculated according to the formula: FRAP valuet(M)=(ΔatFl/ΔatFe^2+)×10^−5 Where ΔatFl is the absorbance change after the time interval t (6 and 65 min) relative to the tested flavonoid at the concentration of 10 μM and ΔatFe^2+ is the absorbance change at the same time interval relative to ferrous sulfate at the same concentration (Pal, C; et al. Free Radic Biol Med, 49(2), 258-267, 2010, Firuzi, O; et al. Biochim. Biophys. Acta 1721:174-184; 2005).

[2] = test system: rats; assay: Toxicity (death) after injection in rats; assay type: in vivo
[3] = DPPH free radical scavenging assay; details: compounds 100 μM; 517 nm (Table 2)
Procedure: The antioxidant property of different tryptamine derivatives were assessed and compared with the known antioxidants for potency. A range of different synthesized compounds and known anti oxidants, quercetin, ascorbic acid and gallic acid were analyzed by the FRAP assay. The FRAP assay is based on the measurement of the ability of the substance to reduce Fe^3+ to Fe^2+, greater the reducing ability greater the anti oxidant property. Antioxidants reduce Fe^3+-TPTZ in to blue colored Fe^2+-TPTZ complex, which results in an increase in the absorbance at 595 nm giving a FRAP value. […] Absorbance changes at different time intervals (FIG. 6) as well as at different concentrations (FIG. 7) at time 6 min in the presence of different compounds at 595 nm were measured. FRAP values at 6 min and 65 min were calculated from different tryptamine derivatives and some known antioxidant (Table 1). […] DPPH assay based on the DPPH free radicals scavenging power of the antioxidant molecules. Higher the scavenging power higher will be the antioxidant property. […] This assay was performed in presence of some known antioxidants such as ascorbic acid, quercetin and gallic acid.
2,2-Diphenyl-1-Picrylhydrazyl (DPPH) is a stable free radical that can accept hydrogen radical or an electron and become a stable diamagnetic molecule. The antioxidants can scavenge the DPPH by donating hydrogen as visualized by discoloration of the DPPH radical from purple to yellow (Pal, C; et al. Free Radic Biol Med, 49(2), 258-267; 2010, Ben Farhat, M.; et al. J. Agric. Food Chem. 57:10349-10356; 2009, Han, J; et al. Wei Sheng Yan Jiu 38:596-598; 2009). The assay system contained 1 mL of compounds under investigation dissolved (in methanol, some compound dissolved in water) at different concentrations in the range 10-100 μM solution and 4 ml of DPPH (0.15 mM) in methanol (80% in water v/v) and mixed well. It was allowed to stand for 30 min at 27° C. away from light. Ascorbic acid at the same concentration was taken as positive control. The absorbance of the solution was measured spectrophotometrically at 517 nm and from the decrease of absorption; the antioxidant activity of different tryptamine derivatives were determined.

[4] = test system: CaCo2 colon cancer cells; details: literature (Shoeb et al. 2006); cited from earlier work
[5] = literature (Shahrzad et al. 2001); cited from earlier work

NCCc1c[nH]c2ccc(O)cc12 [Serotonin, 5-hydroxytryptamine, reference compound]
FRAP Value6 min (μM) M ± SD [1]: 21.61 ± 3.65 µM | FRAP Value65 min (μM) M ± SD [1]: 35.48 ± 6.55 µM | reducing ability (Fe^3+ to Fe^2+) / antioxidant property in words ([1]; compared to other tryptamine derivatives and known antioxidants): very little antioxidant property | death of rats after injection ([2]; i.p. 25 mg kg^−1): all the rats were found to be dead | death of rats after injection ([2]; i.p. 50 mg kg^−1): all the rats were found to be dead

O=C(/C=C/c1ccc(O)cc1)NCCc1c[nH]c2ccc(O)cc12 [Compound 2b, (E)-N-(2-(5-hydroxy-1H-indol-3-yl)ethyl)-3-(4-hydroxyphenyl)acrylamide]
FRAP Value6 min (μM) M ± SD [1]: 3.09 ± 0.13 µM | FRAP Value65 min (μM) M ± SD [1]: 7.44 ± 1.47 µM | Absorbance change (ΔA) at 30 min [3]: 0.12 ± 0.01 | in vitro cytotoxic activity [4]: shows in vitro cytotoxic activity

NCCc1c[nH]c2ccc(OC(=O)CCCC(=O)NCCc3c[nH]c4ccc(O)cc34)cc12 [Compound 6c, 3-(2-aminoethyl)-1H-indol-5-yl 5-(2-(5-hydroxy-1H-indol-3-yl)ethylamino)-5-oxopentanoate]
FRAP Value6 min (μM) M ± SD [1]: 17.51 ± 0.38 µM | FRAP Value65 min (μM) M ± SD [1]: 29.78 ± 3.87 µM | Absorbance change (ΔA) at 30 min [3]: 0.19 ± 0.03 | death of rats after injection ([2]; injected, dose not given): all the rats were found dead within 20 mins

O=C(O)c1cc(O)c(O)c(O)c1 [Gallic acid, reference compound]
FRAP Value6 min (μM) M ± SD [1]: 33.90 ± 4.92 µM | FRAP Value65 min (μM) M ± SD [1]: 46.59 ± 8.41 µM | bioavailability in plasma [5]: low
